Data: patent US7459557B2, “Substituted isoindole-1,3-diones” (Janssen Pharmaceutica N.V., priority 2005, dated 2008)
Where “and” joins values, the source holds several entries; their conditions need not be identical. Equal values may be shown once.

Key:
α1d-AR = molecular target: T1, α1d-AR (Homo sapiens, UniProt P25100); assay: α1-adrenergic receptor radio-ligand (125I-HEAT) binding assay, α1d subtype; conditions: COS-7 cell membranes transfected with α1d subtype, 125I-HEAT 50 pM
T1 construct: expressed in transfected cells; host or cells: COS-7 (African Green monkey kidney) cell membranes
T1 sequence (P25100 1-572): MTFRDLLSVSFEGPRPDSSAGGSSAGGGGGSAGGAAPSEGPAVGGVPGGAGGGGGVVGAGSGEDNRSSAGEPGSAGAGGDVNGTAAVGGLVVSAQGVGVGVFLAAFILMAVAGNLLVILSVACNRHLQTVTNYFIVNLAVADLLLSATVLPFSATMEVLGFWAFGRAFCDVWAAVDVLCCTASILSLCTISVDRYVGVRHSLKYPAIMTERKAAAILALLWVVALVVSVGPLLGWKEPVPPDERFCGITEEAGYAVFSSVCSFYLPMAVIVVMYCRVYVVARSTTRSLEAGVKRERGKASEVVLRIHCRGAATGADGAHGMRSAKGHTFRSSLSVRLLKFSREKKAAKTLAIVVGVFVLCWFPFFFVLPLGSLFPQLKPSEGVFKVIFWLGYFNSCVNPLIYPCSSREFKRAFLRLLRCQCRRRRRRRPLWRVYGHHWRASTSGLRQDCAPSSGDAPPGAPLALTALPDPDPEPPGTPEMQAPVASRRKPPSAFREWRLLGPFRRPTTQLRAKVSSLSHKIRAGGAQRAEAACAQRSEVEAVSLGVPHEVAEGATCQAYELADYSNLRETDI
Procedure: (§1) α1-Adrenergic Receptor Binding Assay
(§2) Preparation of COS Cell Membranes
(§3) Membranes were prepared from COS-7 cells (African Green monkey kidney SV40-transformed cells) that had been transfected with one of the three α1-AR subtypes (Genbank accession number for the α1a subtype: AF013261; Genbank accession number for the α1b subtype: NM000679; Genbank accession number for the α1d subtype: NM000678) using the following method: COS cells from ten 100 mm tissue culture plates were scraped into a 5 mL volume of TE (a mixture of 50 mM Tris-HCl, 5 mM EDTA, pH 7.4). The cell suspension was disrupted with a Brinkman Polytron (at a setting of 8) for 10 sec. The disrupted cells were centrifuged at 1000×g for 10 min at 4° C. Supernatants were centrifuged at 34,500×g for 20 min at 4° C. The membrane pellets were suspended in a 2 mL volume of TNE (a mixture of 50 mM Tris-HCl, 5 mM EDTA and 150 mM NaCl at pH 7.4). An aliquot of the membrane suspension was stored at −70° C. until use. The protein concentration was determined using the BioRad “DC” protein assay kit following membrane solubilization with Triton X-100.
(§4) Radio-Ligand Binding Assay
(§5) Triplicate determinations of radio-ligand binding in the presence of increasing concentrations of testing compound were made. The reagents were added to 96-well polypropylene plate wells. […] The plate was incubated at rt for 1 hr. The contents of the wells were filtered through a glass filter (type C) (GF/C) membrane Unifilter plate (Packard Instruments) using the Packard Filtermate cell harvester. The filter plates were dried in a vacuum oven for 30 min at 40° C. 25 μL Microscint 20 liquid scintillation fluid (Packard Instuments) was added to each well. The radioactive content was analyzed in the TopCount microplate scintillation counter (Packard Instruments).

α1a-AR = molecular target: T2, α1a-AR (Homo sapiens, UniProt P35348); assay: α1-adrenergic receptor radio-ligand (125I-HEAT) binding assay, α1a subtype; conditions: COS-7 cell membranes transfected with α1a subtype, 125I-HEAT 50 pM
T2 construct: expressed in transfected cells; host or cells: COS-7 (African Green monkey kidney) cell membranes
T2 sequence (P35348 1-455 isoform P35348-4): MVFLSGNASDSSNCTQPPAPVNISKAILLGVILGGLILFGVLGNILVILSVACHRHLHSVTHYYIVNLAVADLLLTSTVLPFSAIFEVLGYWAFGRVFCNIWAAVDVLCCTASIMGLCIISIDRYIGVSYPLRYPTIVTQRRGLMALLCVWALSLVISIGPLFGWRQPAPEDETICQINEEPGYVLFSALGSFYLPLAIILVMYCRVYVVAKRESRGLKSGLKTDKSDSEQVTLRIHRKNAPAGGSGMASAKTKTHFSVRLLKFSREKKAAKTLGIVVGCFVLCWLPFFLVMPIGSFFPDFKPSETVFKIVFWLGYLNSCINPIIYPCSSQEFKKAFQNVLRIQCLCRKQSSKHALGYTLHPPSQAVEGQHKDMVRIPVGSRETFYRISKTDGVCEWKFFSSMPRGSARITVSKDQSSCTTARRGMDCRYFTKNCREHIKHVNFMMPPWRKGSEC
Procedure: as §1, §2, §3, §4, §5

α1b-AR = molecular target: T3, α1b-AR (Homo sapiens, UniProt P35368); assay: α1-adrenergic receptor radio-ligand (125I-HEAT) binding assay, α1b subtype; conditions: COS-7 cell membranes transfected with α1b subtype, 125I-HEAT 50 pM
T3 construct: expressed in transfected cells; host or cells: COS-7 (African Green monkey kidney) cell membranes
T3 sequence (P35368 1-520): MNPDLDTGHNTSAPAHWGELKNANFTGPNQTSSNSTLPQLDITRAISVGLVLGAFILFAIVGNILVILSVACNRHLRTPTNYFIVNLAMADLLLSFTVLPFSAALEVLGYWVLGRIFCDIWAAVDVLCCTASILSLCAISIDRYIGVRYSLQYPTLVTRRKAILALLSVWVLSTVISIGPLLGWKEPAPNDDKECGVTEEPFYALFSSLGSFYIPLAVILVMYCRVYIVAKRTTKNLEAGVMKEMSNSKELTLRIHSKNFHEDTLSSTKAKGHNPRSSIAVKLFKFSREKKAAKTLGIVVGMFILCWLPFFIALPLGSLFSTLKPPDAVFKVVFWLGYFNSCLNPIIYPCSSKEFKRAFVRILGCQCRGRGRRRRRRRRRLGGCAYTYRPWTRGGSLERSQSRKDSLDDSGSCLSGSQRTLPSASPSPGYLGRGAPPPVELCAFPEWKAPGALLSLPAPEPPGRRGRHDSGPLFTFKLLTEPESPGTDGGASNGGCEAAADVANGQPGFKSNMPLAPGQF
Procedure: as §1, §2, §3, §4
Triplicate determinations of radio-ligand binding in the presence of increasing concentrations of testing compound were made. The reagents were added to 96-well polypropylene plate wells. Each assay well contained 140 μL TNE, 25 μL ^125I-2-(β-4-hydroxyphenyl)ethylaminomethyltetralone (^125I-HEAT) (specific activity 2200 Ci/mmol, Dupont-New England Nuclear, 50 pM final), 10 μL testing compound dissolved in dimethyl sulfoxide (DMSO) (1 pM to 10 μM in half-log increments, final), and 25 μL appropriate α1-AR membrane subtype suspension in TNE (0.5 ng/μL for the α1a and α1b subtypes and 13 ng/μL for the α1d subtype). The plate was incubated at rt for 1 hr. The contents of the wells were filtered through a glass filter (type C) (GF/C) membrane Unifilter plate (Packard Instruments) using the Packard Filtermate cell harvester. The filter plates were dried in a vacuum oven for 30 min at 40° C. 25 μL Microscint 20 liquid scintillation fluid (Packard Instuments) was added to each well. The radioactive content was analyzed in the TopCount microplate scintillation counter (Packard Instruments).
The Ki values (in nM) shown in Table 1 were determined using GraphPad Prism software.

[1] = tested on: α1a and α1d subtypes over the α1b subtype; conditions: cited from earlier work

Compound | Ki (α1d-AR) | Ki (α1a-AR) | Ki (α1b-AR) | selectivity for the α1a and α1d subtypes over the α1b subtype [1]
CC(C)Oc1ccccc1N1CCN(C2CCC(N3C(=O)c4c(F)c(F)c(F)c(F)c4C3=O)CC2)CC1 (mixture of isomers) [Cpd 1, 4,5,6,7-tetrafluoro-2-{4-[4-(2-isopropoxy-phenyl)-piperazin-1-yl]-cyclohexyl}-isoindole-1,3-dione] | 30.2 nM | 37.8 nM | 4110 nM | 
CCOc1ccccc1OCCN[C@H](C)Cc1ccc(OC)c(S(N)(=O)=O)c1 [Tamsulosin] |  |  |  | about 15 fold
CC(C)Oc1ccccc1N1CCN([C@H]2CC[C@H](N3C(=O)c4ccc5ccc(F)cc5c4C3=O)CC2)CC1 [Cpd 9, 8-fluoro-r-2-{t-4-[4-(2-isopropoxy-phenyl)-piperazin-1-yl]-cyclohexyl}-benzo[e]isoindole-1,3-dione] | 0.61 nM and 0.3 nM | 1.9 nM and 5.9 nM | 35 nM and 58 nM | 
CC(C)Oc1ccccc1N1CCN([C@H]2CC[C@H](N3C(=O)c4cccc(F)c4C3=O)CC2)CC1 [Cpd 3, 4-fluoro-r-2-{t-4-[4-(2-isopropoxy-phenyl)-piperazin-1-yl]-cyclohexyl}-isoindole-1,3-dione] | 0.09 nM | 0.2 nM | 17.9 nM | 
CC(C)Oc1ccccc1N1CCN(C2CCC(N3C(=O)c4ccncc4C3=O)CC2)CC1 (mixture of isomers) [Cpd 6, 2-{4-[4-(2-isopropoxy-phenyl)-piperazin-1-yl]-cyclohexyl}-pyrrolo[3,4-c]pyridine-1,3-dione] | 0.77 nM | 0.43 nM | 22.4 nM | 
CC(C)Oc1ccccc1N1CCN(C2CCC(N3C(=O)c4cc(Cl)c(Cl)cc4C3=O)CC2)CC1 (mixture of isomers) [Cpd 2, 5,6-dichloro-2-{4-[4-(2-isopropoxy-phenyl)-piperazin-1-yl]-cyclohexyl}-isoindole-1,3-dione] | 0.31 nM | 2.69 nM | 1080 nM | 
CC(C)Oc1ccccc1N1CCN(C2CCC(N3C(=O)c4ccc5ccccc5c4C3=O)CC2)CC1 (mixture of isomers) [Cpd 7, 2-{4-[4-(2-isopropoxy-phenyl)-piperazin-1-yl]-cyclohexyl}-benzo[e]isoindole-1,3-dione] | 0.27 nM and 0.13 nM | 0.58 nM and 3 nM | 16 nM and 14 nM | 
CC(C)Oc1ccccc1N1CCN([C@H]2CC[C@@H](N3C(=O)c4ccc5ccc(F)cc5c4C3=O)CC2)CC1 [Cpd 8, 8-fluoro-r-2-{c-4-[4-(2-isopropoxy-phenyl)-piperazin-1-yl]-cyclohexyl}-benzo[e]isoindole-1,3-dione] | 16.4 nM | 15 nM | 269 nM | 
CC(C)Oc1ccccc1N1CCN(C2CCC(N3C(=O)c4cccnc4C3=O)CC2)CC1 (mixture of isomers) [Cpd 5, 6-{4-[4-(2-isopropoxy-phenyl)-piperazin-1-yl]-cyclohexyl}-pyrrolo[3,4-b]pyridine-5,7-dione] | 1.45 nM | 0.75 nM | 44.6 nM | 
CC(C)Oc1ccccc1N1CCN([C@H]2CC[C@@H](N3C(=O)c4cccc(F)c4C3=O)CC2)CC1 [Cpd 4, 4-fluoro-r-2-{c-4-[4-(2-isopropoxy-phenyl)-piperazin-1-yl]-cyclohexyl}-isoindole-1,3-dione] | 3.24 nM and 13.5 nM and 28 nM | 0.873 nM and 1.1 nM and 0.95 nM | 164 nM and 129 nM and 88 nM | 
